Reference: patent US6174875A, “Benzoquinoid ansamycins for the treatment of cardiac arrest and stroke” (priority 1999, dated 2001)
Values belong to the compound of their own block, whether it stands above or below them.

Key:
cultured neurons = conditions: cited from earlier work
in vivo = conditions: mouse, iv, 60 mg/kg
Experimental: 17-allylaminogeldanamycin (17-AAG) (60 mg/kg) was administered to CD2F1 mice by intravenous (iv) injection. Brain levels of 17-AAG were determined at various time points after administration.

[1] = system: heat shock proteins in myogenic H9c2 cells; conditions: cited from earlier work; for overexpression of heat shock proteins in myogenic H9c2 cells: pretreatment
[2] = system: heat shock proteins in rat cardiomyocytes; conditions: cited from earlier work; for overexpression of heat shock proteins in cardiomyocytes: pretreatment
[3] = system: myogenic H9c2 cells and cardiomyocytes; conditions: pretreatment; cited from earlier work
hsp70 in fibroblasts = conditions: cited from earlier work
HT22 cells [4] = experiment: MTT viability assay of glutamate-treated HT22 cells; format: cell-based, mouse
Experimental: (§1) HT22 cells were seeded on 60 mm tissue culture dishes at 300,000 cells per dish and grown overnight. Cells were then incubated in the presence of 5 mM glutamate for 20 hours. […] In order to provide a more accurate assessment of glutamate-induced oxidative toxicity, the ability of HT22 cells to metabolize 3-(4,5-[…]-2-yl)-2,5-diphenyl tetrazolium bromide (MTT) was assayed. The reduction of this dye by viable cells can easily be detected spectrophotometrically as described by Mosman (1983) J. Immunol. Methods 65:55 with reduced HT22 cell viability directly correlated with decreased metabolism of MTT (Shubert et al. (1992) Proc. Natl. Acad. Sci. USA 89:8264). HT22 cells were seeded on 96-well plates at 5,000 cells per well and grown for 12 hours. Cells were then treated with 2 mM, 5 mM or 10 mM concentrations of glutamate. […] After a total incubation period of 20 hours, cell viability was measured using an MTT assay as described by Li et al. (1997) Neuron 19:453. Briefly, 10 μl of MTT solution (5 mg/ml) was added to each well and cells incubated for an additional 4 hours. 100 μl of solubilization solution (50% dimethylformamide and 20% SDS, pH 4.8) was added and left on the cells 5 overnight, after which light absorption at 570 nm was measured. Values (% Viability) represent the average of quadruplicate (FIG. 1) or triplicate (FIG. 2) determinations±S.D. Similar results were obtained in a replicate experiment. Cell viability was expressed relative to control cells treated with GA or Herb alone.

hsp70 in rat brain = experiment: Western blot of hsp70 in rat hippocampus after intracranial ventricular injection; format: in vivo; conditions: 20 μg geldanamycin icv, 12 or 24 hours (FIGS. 5A, 5B)
Experimental: (§2) Geldanamycin was delivered to rat brain by intracranial ventricular (icv) injection as follows. Rats were stereotaxically fitted with 4 mm×22 gauge guide cannulae directed at the lateral ventricle (AP-2.0, ML+2.0). […] The injector was removed and replaced with a stylet. At 12 or 24 hours after injection, hippocampi were isolated from which whole cell extracts were prepared and subjected to Western blot analysis to visualize raf- 1 and actin, or hsp70. Negative and positive control protein samples for hsp70 were prepared from untreated or heat shocked HT22 cells. Western blot analysis is depicted in FIGS. 5A and 5B in which the (-) and (+) lanes refer to the negative and positive control samples.

HT22 cells [5] = experiment: Glutamate-induced cytotoxicity in HT22 cells by phase contrast/light microscopy and trypan blue staining; format: cell-based, mouse
Experimental: as §1, with “overnight.” for “overnight. Cells were then incubated in the presence of 5 mM glutamate for 20 hours.”

HT22 cells [6] = experiment: Internucleosomal DNA cleavage (apoptosis) in HT22 cells; format: cell-based, mouse
Experimental: HT22 cells were treated with 5 mM glutamate (Glu) for 20 hours. […] Controls included HT22 cells not treated with Glu or GA and cells treated with GA alone.

hsp90 in HT22 cells = experiment: Western blot of steady state hsp90 levels in HT22 cells; format: cell-based, mouse; conditions: 0.1 μg/ml GA
Experimental: (§3) Cells were harvested and lysed by sonication in 0.25 M Tris-HCl, pH 7.5 and lysates clarified by centrifugation at 14,000 rpm for 10 minutes at 4 ° C. Equivalent amounts of lysate protein (5 μg) were used for Western blot analysis as described by Xiao et al. (1997) Mol. Endocrinol. 11: 1365. The inducible form of the 70 kDa heat shock protein, hsp70, was uniquely detected using the SPA-810 monoclonal antibody (StressGen). GA induction of hsp70 was evident within 3 hours of GA treatment, was maximal upon 9 hours of GA treatment, and persisted for at least 12 hours in the presence of GA.

raf-1 in rat brain = experiment: Western blot of raf-1 in rat hippocampus after intracranial ventricular injection; format: in vivo; conditions: 20 μg geldanamycin icv, 12 or 24 hours (FIGS. 5A, 5B)
Experimental: as §2

hsp70 in HT22 cells = experiment: Western blot of inducible hsp70 expression in HT22 cells; format: cell-based, mouse
Experimental: as §3

[7] = system: glutathione levels in HT22 cells; experiment: Cellular glutathione (GSH) levels in HT22 cells (monochlorobimane fluorescence); format: cell-based, mouse; conditions: 0.1 μg/ml GA, 5 mM glutamate, 2-8 hours (FIG. 3)
Experimental: Cellular glutathione (GSH) levels were measured in HT22 cells as described previously by Kane (1993) Science 262:1274. Briefly, HT22 cells were seeded onto 96-well plates at 20,000 cells per well and grown overnight. […] Monochlorobimane was added to 40 μM and following an additional 30 minutes of incubation, fluorescence at 460 nm in response to excitation at 395 mn was measured using a Perkin Elmer fluorescence plate reader. Values represent the average of triplicate experiments±S.D.

[8] = system: Male Sprague-Dawley rats (asphyxial cardiac arrest); format: in vivo, rat
Source text: In rats, asphyxia produces circulatory arrest that can be reversed by mechanical ventilation and external chest compression (Katz et al. (1995) J. Cereb. Blood Flow Metab. 15:1032). […] Meaningful behavioral scores that predictable detect neurological deficits which closely mimic the types of deficits observed in patients that recover from cardiac arrest have been developed. Animal protocols were approved by the Institutional Animal Care and Use Committee of the University of Pittsburgh. Male Sprague-Dawley rats weighing 318±17 gm (Harlan, Indianapolis, Ind.) were anesthetized with 0.8% halothane in oxygen, endotracheally intubated using a 14 gauge angiocath, and mechanically ventilated using a Harvard rodent ventilator (0.9 cc/kg, 40 respirations/min). Blood pressure and arterial blood gases are monitored via a femoral arterial catheter (PE-50 tubing, IntraMedic), and drugs administered via a femoral venous catheter (PE-50). Tympanic temperature was maintained at 36.9±0.2° C. by manipulating an overhead 100 W lamp. After chemical paralysis with 2 mg/kg vecuronium and reducing the fraction of inspired oxygen to 0.21 (room air) mechanical ventilation was discontinued at end-expiration. Cardiac arrest (mean arterial pressure <10 mmHg) reliably occurred within 180 seconds. […]

[9] = system: hsp90-associated signaling molecules; conditions: other cultured cells; cited from earlier work

Compound: CC(=O)Oc1ccccc1C(=O)O [aspirin]
protection of cultured neurons from oxidative toxicity (cultured neurons): protect cultured neurons from this form of toxicity

concentration at 24 h (in vivo): 100 ng/g
Compound: C=CCNC1=C2CC(C)CC(OC)C(O)C(C)C=C(C)C(OC(N)=O)C(OC)C=CC=C(C)C(=O)NC(=CC1=O)C2=O (stereo not drawn) [17-AAG, 17-allylaminogeldanamycin]

Compound: COC1C=CC=C(C)C(=O)NC2=CC(=O)C=C(C2=O)C(OC)C(C)CC(OC)C(OC)C(C)C=C(C)C1OC(N)=O (stereo not drawn) [herbimycin A]
induction of hsp70 expression in a myogenic cell line [1]: induce hsp70 expression
overexpression of heat shock proteins in myogenic H9c2 cells [1]: overexpression of heat shock proteins
induction of hsp70 expression in rat cardiomyocytes [2]: induce hsp70 expression
overexpression of heat shock proteins in cardiomyocytes [2]: overexpression of heat shock proteins
protection against simulated ischemia [3]: conferred protection against simulated ischemia
induction of hsp70 expression in fibroblasts (hsp70 in fibroblasts): induce hsp70 expression
protection from glutamate-induced oxidative toxicity (MTT viability) (HT22 cells [4]; 0.5 μg/ml herbimycin A (FIG. 2)): protected HT22 cells from the glutamate-induced oxidative toxicity

Compound: COC1=C2C[C@@H](C)C[C@H](OC)[C@H](O)[C@@H](C)/C=C(\C)[C@H](OC(N)=O)[C@@H](OC)/C=C\C=C(/C)C(=O)NC(=CC1=O)C2=O [geldanamycin]
induction of hsp70 expression in a myogenic cell line [1]: induce hsp70 expression
overexpression of heat shock proteins in myogenic H9c2 cells [1]: overexpression of heat shock proteins
expression of hsp70 in rat brain (hsp70 in rat brain): increased expression of hsp70
protection from glutamate-induced oxidative toxicity (phase contrast) (HT22 cells [5]; 0.1 μg/ml GA, 5 mM glutamate, GA added at same time or 1, 2 or 6 hours after glutamate): led to protection from glutamate-induced oxidative toxicity
HT22 cell growth rate, GA alone (HT22 cells [5]; GA alone): appeared to reduce HT22 cell growth rate
cell death, GA alone (HT22 cells [5]; GA alone, assessed after 24 hours): did not lead to cell death
internucleosomal DNA cleavage, GA alone (HT22 cells [6]; 0.1 μg/ml GA alone): not subjected to this type of characteristic genomic DNA cleavage
block of glutamate-induced internucleosomal DNA cleavage (HT22 cells [6]; 0.1 μg/ml GA, 5 mM glutamate): able to block glutamate-induced internucleosomal DNA cleavage
steady state levels of hsp90 (hsp90 in HT22 cells): not affected
expression of raf-1 proto-oncogene in rat brain (raf-1 in rat brain): decreased expression of the raf-1 proto-oncogene
induction of hsp70 expression in rat cardiomyocytes [2]: induce hsp70 expression
overexpression of heat shock proteins in cardiomyocytes [2]: overexpression of heat shock proteins
hsp70 induction by GA in the presence of glutamate (hsp70 in HT22 cells; 0.1 μg/ml GA + 5 mM glutamate): still able to induce hsp70
time GA-induced hsp70 levels are maintained in the presence of glutamate (hsp70 in HT22 cells; 0.1 μg/ml GA + 5 mM glutamate): up to 12 hours
persistence of hsp70 induction in the presence of GA (hsp70 in HT22 cells; 0.1 μg/ml GA, HT22 cells): at least 12 hours
time at which GA induction of hsp70 was evident (hsp70 in HT22 cells; 0.1 μg/ml GA, HT22 cells): ≤ 3 h
time of maximal GA induction of hsp70 (hsp70 in HT22 cells; 0.1 μg/ml GA, HT22 cells): 9 h
induction of hsp70 protein levels at higher doses of GA (hsp70 in HT22 cells; doses above 0.1 μg/ml, HT22 cells): not significantly enhanced at higher doses
induction of hsp70 compared with heat shock (hsp70 in HT22 cells; vs 60 minute 42° C. heat shock, 0.1 μg/ml GA): as effective as a 60 minute 42 °C heat shock
recovery of glutathione levels [7]: did not lead to recovery of glutathione levels
protection against simulated ischemia [3]: conferred protection against simulated ischemia
induction of hsp70 expression in fibroblasts (hsp70 in fibroblasts): induce hsp70 expression
protection when GA is given following glutamate treatment (HT22 cells [4]; 0.1 μg/ml GA added after glutamate (FIG. 1)): retained its capacity to protect HT22 cells from oxidative stress
protection against glutamate cytotoxicity (MTT viability) (HT22 cells [4]; 0.1 μg/ml GA, 10 mM glutamate, 20 h): less effective at this higher dose of glutamate
protection against glutamate cytotoxicity (MTT viability) (HT22 cells [4]; 0.1 μg/ml GA, 2 and 5 mM glutamate, 20 h (FIG. 1)): effective protection
time after glutamate exposure at which protection by GA was still apparent (HT22 cells [4]; 0.1 μg/ml GA, 2 or 5 mM glutamate): 6 h
neurological deficit scores vs vehicle ([8]; GA 1.0 mg/kg iv after return of spontaneous circulation, n=5, scored at 24, 48, 72 hours, Kruskal-Wallace Chi-square=6.54, p<0.05 (FIG. 4)): lower in rats treated with GA (n=5) than in rats treated with vehicle
physiological variables during the resuscitation phase vs vehicle ([8]; GA 1.0 mg/kg iv, rats): did not differ between groups
degradation of hsp90-associated signaling molecules [9]: selective degradation of hsp90-associated signaling molecules

Compound: vitamin E
protection of cultured neurons from oxidative toxicity (cultured neurons): protect cultured neurons from this form of toxicity
